# Laboratory results reported in patent EP4035684A1, “AFFINITY ILLUDOFULVENE CONJUGATES” (AF Chemical LLC, priority 2019, dated 2022).
# *1 amine or outer side, *2 acyl side, *3 side chain or, on linkers, in order; H or OH if unused. Where a SMILES comes first, the peptide text is derived from it. [ ]: non-standard residue; d: D form. The star is where a group is joined. ξ: configuration not given here. X2 = CC1=C(CCCN*)C2=C(C)C3(CC3)[C@@](C)(O)C(=O)C2=C1; X4 = CC1=C(C*)C2=C(C)C3(CC3)[C@@](C)(O)C(=O)C2=C1; Morpholide = C1CN(*)CCO1; CO = O=C([*:1])[*:2]; ξC = NC(CS)C(=O)O
# Experiments:
# [1] = system: NCI 60 cell line panel; settings: cited from earlier work; for Mean TGI cytostatic / GI50: mean over NCI DTP 60 cell lines; for GI50: read-out: Mean GI50 inhibition; for CC50: human, nci 60 cell lines
# [2] = system: 8392B cell line; assay: cells; format: cell-based
# [3] = system: 8392B cell line; assay: Two hour toxicity: inhibition of DNA synthesis activity, nontarget cell line; format: cell-based; settings: read-out: Mean IC50 value (nM) ± SD, N=3 unless otherwise indicated; 8392B Nontarget Cell Line; 2 hr exposure; 8392B nontarget cell line, 2 hr exposure; mean ± SD, N=3 unless otherwise indicated
# [4] = system: MV522 cell line; assay: cells; format: cell-based; settings: read-out: Mean IC50 value (nM) ± SD, N=3 unless otherwise indicated, MV522 Target Cell Line, 2 hr exposure, 2 hr exposure
# [5] = system: MV522 cell line; assay: 48 hour exposure, growth or viability by Trypan Blue Exclusion assay, target cell line; format: cell-based; settings: read-out: Mean IC50 value (nM) ± SD, N=3 unless otherwise indicated
# [6] = system: HT29 (ER Negative); assay: Cytotoxicity, 2 hour exposure, cells not expressing the estrogen receptor; format: cell-based; settings: Homo sapiens, HT-29, N=3, mean ± SD
# From the text: (§1) MCF7 over express estrogen alpha-receptors.
# (§2) MCF7 cells over express estrogen alpha-receptors.
# (§3) The foregoing description of embodiments of the methods, systems, and components of the present invention has been provided for the purposes of illustration and description. It is not intended to be exhaustive or to limit the invention to the precise forms disclosed. Many modifications and variations will be apparent to one of ordinary skill in the relevant arts. For example, steps performed in the embodiments of the invention disclosed can be performed in alternate orders, certain steps can be omitted, and additional steps can be added. The embodiments were chosen and described in order to best explain the principles of the invention and its practical application, thereby enabling others skilled in the art to understand the invention for various embodiments and with various modifications that are suited to the particular used contemplated. Other embodiments are possible and are covered by the invention. Such embodiments will be apparent to persons skilled in the relevant art(s) based on the teachings contained herein. The breadth and scope of the present invention should not be limited by any of the above-described exemplary embodiments, but should be defined only in accordance with the following claims and their equivalents.
# [7] = system: MCF7 (ER positive); assay: Cytotoxicity, 2 hour exposure, cells expressing the estrogen receptor; format: cell-based; settings: Homo sapiens, N=3, mean ± SD
# From the text: as §1, §2, §3
# [8] = system: Prostate DuPro (trace PSA); assay: Activity of PSA cleavable analogs against trace PSA cell line, 48 hour exposure; format: cell-based; settings: N=3, mean ± SD
# [9] = system: Prostate LnCAP (positive PSA); assay: Activity of PSA cleavable analogs against PSA positive cell line, 48 hour exposure; format: cell-based; settings: N=3, mean ± SD
# [10] = system: Prostate PC3 (negative PSA); assay: Activity of PSA cleavable analogs against PSA negative cell line, 48 hour exposure; format: cell-based; settings: N=3, mean ± SD
# [11] = system: NCI 60 cell line panel; assay: NCI DTP 60 cell line screen assay; settings: for Cytotoxicity: ability to actually kill tumor cells versus only inhibiting growth
# From the text: An ADC is engulfed by a tumor cell, transported to the endosomes (pH < 6.0) and then into the lysozomes (pH < 4). […] 4) Cancer cells can become resistant to various toxins and drugs through the development of what is termed multi-drug resistance. This process is known to occur through several different mechanisms.
# [12] = read-out: Mean IC50 value (nM) ± SD, N=3 unless otherwise indicated, 8392B Nontarget Cell Line, 48 hr exposure, 8392B nontarget cell line, mean ± SD, N=3 unless otherwise indicated
# [13] = MV522 target cell line, mean ± SD, N=3 unless otherwise indicated
Molecule,"IC50 [2, 12] [nM]",IC50 [3] [nM],"IC50 [4, 13] [nM]",IC50 [5] [nM],also measured
CO[C@@H]1[C@H](O)CC[C@]2(CO2)[C@H]1[C@@]1(C)O[C@@H]1CC=C(C)C [Fumagillol],–,–,–,–,"Mean TGI cytostatic [1]: 9,850 nM; GI50 [1]: 6130 nM"
CC1=C2C(O)C(C)(C)C3CC23C(=O)C(C)(O)C12CC2 (stereo not shown) [compound 252],> 380000,> 380000,> 380000,–,–
CC(=O)ON(C(C)=O)c1ccc(C(=O)OC[C@]2(C)C=C3C(=O)[C@](C)(O)C4(CC4)C(C)=C3C2OC(=O)c2ccc(N(OC(C)=O)C(C)=O)cc2)cc1 (stereo partly shown) [compound 140],> 14000,–,–,> 14000,–
CC1=C2C(=CC(C)(O)C2O)C(=NO)C(C)(O)C12CC2 (stereo not shown) [compound 225],33000,> 350000,47000,55000,–
CC1=C(CSC[C@H](NC(=O)[C@H](CCCNC(=N)N)NC(=O)CNC(=O)[C@H](CC(N)=O)NC(=O)[C@@H](N)CSCC2=C(C)C=C3C(=O)[C@](C)(O)C4(CC4)C(C)=C32)C(=O)O)C2=C(C)C3(CC3)[C@@](C)(O)C(=O)C2=C1 [compound 100] (H-C(X4)NGRC(X4)-OH),–,–,> 10000,1700 ± 500,–
CC1=C2C(=CC(C)(C)[C@@H]2O)C(=O)[C@](C)(O)C12CC2 [Illudin M],–,–,–,–,CC50 [1]: 291 nM; Mean TGI cytostatic [1]: 20 nM; GI50 [1]: 3 nM; IC50 [6]: 520 ± 100 nM; IC50 [7]: 480 ± 130 nM
CC1=C(CCCNC(=O)[C@H](CC(C)C)NC(=O)[C@H](CCC(N)=O)NC(=O)[C@H](CC(C)C)NC(=O)[C@H](CCCCN)NC(=O)[C@H](CO)NC(=O)[C@H](CO)NC(=O)[C@H](Cc2c[nH]cn2)NC(=O)N2CCOCC2)C2=C(C)C3(CC3)[C@@](C)(O)C(=O)C2=C1 [compound 221] ({Morpholide-CO}-HSSKLQL-X2),> 21000,> 21000,> 21000,2500,IC50 [8]: 13 µM; IC50 [9]: 800 ± 100 nM; IC50 [10]: > 21000 nM
CC(=O)Oc1ccc(-n2nnnc2SCC2=C(C)C=C3C(=O)[C@](C)(O)C4(CC4)C(C)=C32)cc1 [compound 155],9100 ± 1100,17000,8200 ± 1200,3600 ± 400,–
CC1=C(CCCNC(=O)NCCO)C2=C(C)C3(CC3)[C@@](C)(O)C(=O)C2=C1 [compound 280],> 2800,> 83000,–,< 80,–
CC(=O)OCC1(C)C=C2C(=O)[C@](C)(O)C3(CC3)C(C)=C2C1O (stereo partly shown) [compound 159],–,13700,–,120 ± 10,"IC50 ([2]; 48 h, read-out: Mean IC50 value (nM) ± SD, N=3 unless otherwise indicated, 8392B Nontarget Cell Line, 48 hr exposure): < 10 nM; IC50 ([4]; MV522, 2 h): 2700 ± 400 nM; MDR Activity [11]: Yes; Cytotoxicity [11]: Yes"
C=C1C[C@H]2C=Nc3cc(OCCCOc4cc5c(cc4OC)C(=O)N4CC(=C)C[C@H]4C=N5)c(OC)cc3C(=O)N2C1 [Pyrrolobenzodiazepines],–,–,–,–,Mean TGI cytostatic [1]: 302 nM; GI50 [1]: 7 nM
CC1=CC2=C(C)C3(CC3)C(C)(O)C(=NO)C2=C1 (stereo not shown) [compound 224],> 130000,> 200000,> 200000,> 130000,–
CC[C@H](C)[C@H](NC(=O)[C@H]1CCCCN1C)C(=O)N(COC(=O)CC(C)C)[C@H](C[C@@H](OC(C)=O)c1nc(C(=O)N[C@@H](Cc2ccc(O)cc2)C[C@H](C)C(=O)O)cs1)C(C)C [Tubulysin A],–,–,–,–,"CC50 [1]: > 10000 nM; Mean TGI cytostatic [1]: 1,318 nM; GI50 [1]: 12 nM"
CC1=C(CNC(=O)NO)C2=C(C)C3(CC3)[C@@](C)(O)C(=O)C2=C1 [compound 277],9800,31000,–,190 ± 20,–
CC(=O)N1C[C@H](O)C[C@H]1C(=O)N[C@@H](CO)C(=O)N[C@@H](CO)C(=O)N[C@H](C(=O)N[C@@H](CCC(N)=O)C(=O)N[C@@H](CO)C(=O)N[C@@H](CO)C(=O)N1CCC[C@H]1C(=O)O[C@@H]1C2=C(C)C3(CC3)[C@@](C)(O)C(=O)C2=CC1(C)C)C1CCCCC1 [compound 216],–,–,–,–,IC50 [8]: 0.28 ± 0.06 µM; IC50 [9]: 190 ± 30 nM; IC50 [10]: 190 ± 10 nM
COc1cc2cc(c1Cl)N(C)C(=O)C[C@H](OC(=O)[C@H](C)N(C)C(C)=O)[C@]1(C)O[C@H]1[C@H](C)[C@@H]1C[C@@](O)(NC(=O)O1)[C@H](OC)/C=C/C=C(\C)C2 [Maytansine],–,–,–,–,Mean TGI cytostatic [1]: 318 nM
CC(=O)N1C[C@H](O)C[C@H]1C(=O)N[C@@H](CO)C(=O)N[C@@H](CO)C(=O)N[C@H](C(=O)N[C@@H](CCC(N)=O)C(=O)N[C@@H](CO)C(=O)N[C@@H](CO)C(=O)N1CCC[C@H]1C(=O)O[C@@H]1C2=C(C)C3(CC3)[C@@](C)(O)C(=O)C2=C[C@@]1(C)CO[Si](C)(C)C(C)(C)C)C1CCCCC1 [compound 215],–,–,–,490 ± 120,IC50 [9]: > 20000 nM

Molecule,"IC50 [2, 12] [nM]",IC50 [3] [nM],"IC50 [4, 13] [nM]",IC50 [5] [nM],also measured
CC1=C(CCCNS(=O)(=O)c2ccc(C)cc2)C2=C(C)C3(CC3)[C@@](C)(O)C(=O)C2=C1 [compound 242],–,–,–,580 ± 150,–
CC1=C(CCCNS(=O)(=O)NO)C2=CC3(CC3)C(C)(O)C(=O)C2=C1 (stereo not shown) [compound 265],–,–,810 ± 20,8 ± 1,–
CC1=C2C(=CC(C)(CO[Si](C)(C)C(C)(C)C)C2OC(=O)c2ccc(S(=O)(=O)F)cc2)C(=O)C(C)(O)C12CC2 (stereo not shown) [compound 219],> 52000,> 52000,> 52000,> 52,–
COC(=O)C1=C(C(=O)OC)C23C=C(C)C1C2=C(C)C1(CC1)[C@@](C)(O)C3O (stereo partly shown) [compound 141],–,13700 ± 1900,–,3700 ± 800,–
CCCCCCCC/C=C/CCCCCCCC(=O)OCC1=C(C)C=C2C(=O)[C@](C)(O)C3(CC3)C(C)=C21 [compound 226],> 59000,> 59000,> 59000,> 59000,–
Halichondrin B,–,–,–,–,CC50 [1]: > 1000 nM; Mean TGI cytostatic [1]: 199 nM
CC1=C(CO)C2=C(C)C3(CC3)[C@@](C)(O)C(=O)C2=C1 [compound 002],–,–,–,–,"IC50 ([4]; MV522, 2 h): 110 ± 40 nM; MDR Activity [11]: Yes; Activity Value ([11]; negative = lyses tumor cells, zero = no growth, positive = slower growth): -15"
CC(=O)OCC1(C)C(OC(C)=O)C2=C(C)C3(CC3)C(C)(O)C(=O)C23CC31 (stereo not shown) [compound 250],137000,> 275000,99000,137000,–
CC1=C(CCCOC(=O)c2cn(CC3=C(C)C=C4C(=O)[C@](C)(O)C5(CC5)C(C)=C43)nn2)C2=C(C)C3(CC3)[C@@](C)(O)C(=O)C2=C1 [compound 257],–,–,–,320 ± 30,–
CC1=C(CSCC(N)C(=O)N[C@@H](CCCNC(=N)N)C(=O)NCC(=O)N[C@@H](CC(N)=O)C(=O)NC(CSCC2=C(C)C=C3C(=O)[C@](C)(O)C4(CC4)C(C)=C32)C(=O)O)C2=C(C)C3(CC3)[C@@](C)(O)C(=O)C2=C1 (stereo partly shown) [compound 101] (H-[ξC](X4)RGN[ξC](X4)-OH),–,–,> 8000,> 7500,–
CC1=C(Cn2c(=O)[nH]cc(F)c2=O)C2=C(C)C3(CC3)[C@@](C)(O)C(=O)C2=C1 [compound 287],–,567000 ± 17000,455000 ± 22000,–,–
CC1=C(Cn2ccc(=O)[nH]c2=O)C2=C(C)C3(CC3)[C@@](C)(O)C(=O)C2=C1 [compound 289],> 8800,> 290000,51 ± 4,530 ± 150,–
CC1=C(CCCOC(=O)NCCCl)C2=C(C)C3(CC3)[C@@](C)(O)C(=O)C2=C1 [compound 238],–,–,780 ± 190,57 ± 8,–
CC1=C(CCCOC(=O)[C@@H]2CCCN2C(=O)[C@H](CO)NC(=O)OC(C)(C)C)C2=C(C)C3(CC3)[C@@](C)(O)C(=O)C2=C1 [compound 208],–,25000,–,930 ± 160,–
CC1=C(CNC(=O)NCCCl)C2=C(C)C3(CC3)[C@@](C)(O)C(=O)C2=C1 [compound 282],> 8500,> 85000,680 ± 60,–,–
CC1=C(CNC(=O)NCCO)C2=C(C)C3(CC3)[C@@](C)(O)C(=O)C2=C1 [compound 279],> 9000,> 90000,–,190 ± 20,–
COC(=O)C1=C(C(=O)OC)C23C=C(C)C1C2=C(C)C1(CC1)[C@@](C)(O)C3=O (stereo partly shown) [compound 142],–,–,–,24 ± 7,MDR Activity [11]: Yes; Cytotoxicity [11]: Yes
